Here are results for eight compounds from article PMC8876931, “Pharmacokinetic, Metabolomic, and Stability Assessment of Ganoderic Acid H Based Triterpenoid Enriched Fraction of Ganoderma lucidum P. Karst” (Metabolites, 2022).

Each structure is given as a SMILES string.

A short description of data set [1]: In vivo pattern recognition of TEF: UPLC–MS metabolic profiling of blood after oral administration. More on the design: species or system rats. Conditions: for Metabolites Pattern in TEF and Blood (Abundance): UPLC–MS abundance of mass; for bioavailability (absorbed in systemic circulation) of TEF constituent: after oral administration of TEF to rats, in words. How it is done:
For in vivo pattern recognition of TEF, it was orally administered to rats. After its oral administration, blood samples were collected at different time intervals. Prepared plasma samples of pharmacokinetic analysis (0.5, 1, 3, 6, 12, 24, 48, and 72 h) were used for this study. Samples were analyzed by ultra-performance liquid chromatography–mass spectrometry (UPLC–MS) analysis. The UPLC–MS was performed on Water’s ACQUITY UPLCTM system (Waters Corp., Milford, MA, USA) equipped with a binary solvent delivery system, an autosampler, column manager, and a tunable MS detector (Synapt; Waters, Manchester, UK). Chromatographic separation was performed on a Water’s ACQUITY UPLC^TM BEH C18 (100.0 × 2.1 mm × 1.7 μm) column. The mobile phase used for chromatographic separation was 0.05% (v/v) formic acid in water (A) and 0.05% (v/v) formic acid in acetonitrile (B). […] The flow rate of mobile phase was 0.5 mL/min, and column temperature was set at 25 °C throughout the run time. The mass spectrometry was performed on a quadrupole orthogonal acceleration time of flight tandem mass spectrometer (Waters Q-TOF, Manchester, UK). The nebulizer gas was set to 500 L/h, the cone gas was set to 50 L/h, and the source temperature was set to 100 °C. The capillary voltage was set to 3.0 kV, and the sample cone voltage was set to […]. Argon was employed as the collision gas at a pressure of 5.3 × 10^−5 Torr. The Q-TOF was operated in positive mode with […] and 0.02 s inter-scan delay. The accurate mass and composition for the precursor ions and the fragment ions were calculated by using MassLynx v 4.1 software incorporated with the instrument. Compounds were tentatively identified from database by comparing their reported m/z values with experimental values. Focus was given to the mass ranges from 130 to 600 m/z for lanosterol type triterpenoids and general terpene hydrocarbon. The databases used for identification of compounds were MassBank and HMDB.
Metabolomic comparison was performed with respect to analysis of TEF. For that, dried TEF was dissolved in LC–MS grade methanol and analyzed with same conditions used for plasma sample analysis. […] This metabolomic analysis was based on metabolites absorbed in blood after oral administration.

The subject of the next data set is breast cancer cells. The arrangement: method as in PMID 18425349. Particulars: by modulating AP-1 and NF-κB signaling; cited from earlier work.
Data set [2] in a line: Pharmacokinetic analysis of TEF in terms of GA-H after oral administration to rats (HPLC of plasma and urine). The arrangement: rate of elimination (Kel): unit not given here. It counts as in vivo, Albino Wistar rats. How it is done: Alliance HPLC system (e2695 Separation module, Waters, Milford, MA, USA) with a gradient pump integrated with adjustable wavelength programmable photodiode array detector (PDA) was employed for analysis. Chromatographic separation was executed on Hupersil […] C18 (ODS) column (150 × 4.6 mm, Phenomenex, Torrance, CA, USA), using mobile phase composed of 0.5% v/v formic acid in water (A) and methanol (B). Solvents were eluted at a flow rate of 1.0 mL/min in gradient elution program (initially 100% A, 0–5 min 90% A, 5–10 min 70% A, 10–15 min 30% A, 15–20 min 2% A, and 20–22 min 100% A). Detection was carried out in a scanning mode with 3D channel at a wavelength of 254 nm. Total run time was 25 min. The identity of the compounds was established by comparing retention time of analytical standards. The proposed developed method was further validated as per the AOAC guidelines.
Albino Wistar rats (8 weeks old, 180 ± 20 g) were obtained from the Central Animal House Facility of Jamia Hamdard. Animal housing and handling were executed in accordance with the Good Laboratory Practice (GLP) mentioned in CPCSEA guidelines. All experimental protocols were reviewed and approved by the Institutional Animal Ethics Committee (Registration No 173/GO/RE/S/2000/CPCSEA; approval number 1472). All animals were housed in polypropylene cages (not more than three animals per cage) with proper water and feed and were allowed to acclimatize with specified conditions (25 ± 3 °C and 60 ± 5%RH) for a week before the experiment. […] After oral administration, blood samples were collected from retro-orbital plexus by using heparinized capillaries at 0 (pre-dose), 0.5, 1, 1.5, 2, 4, 6, 8, 10, 12, 16, 24, and 30 h. Blood samples were collected in EDTA tubes and centrifuged at 7000 rpm to get plasma. The separated plasma was stored at −60 °C until analysis. […] The collected urine from each animal was pooled for analysis.
Liquid–liquid extraction was used for extraction of GA-H from plasma. In 100 µL of plasma, 500 µL of ice-cold methanol was added, vortexed, and incubated at −60 °C for 8 h. After incubation, it was brought to room temperature and centrifuged at 10,000 rpm for 10 min. The supernatant was separated and dried by passing […]. The dried extract was re-suspended with 100 μL of LC–MS grade methanol, sonicated for 10 min, centrifuged at 14,000 rpm for 10 min, supernatant separated, and then transferred into sample vials having insert for analysis. Similar sample preparation protocol and storage conditions were used for urine through liquid–liquid extraction.
The maximum plasma concentration (Cmax) and time to attain maximum concentration (Tmax) were directly assessed by plasma concentration–time graph. Other pharmacokinetic parameters, such as AUC, AUC0–t, AUC0–∞, half-life (t1/2), elimination rate constant (Kel), and volume of distribution (Vd), were calculated from plasma concentration vs. time profile response curve by non-compartmental analysis, using software Pkf Excel plug-in program.

The mark [3] stands for this setting: blood 1 h after oral TEF to rats.
Setting [4] is: blood 3 h after oral TEF to rats.
[5] abbreviates: blood 6 h after oral TEF to rats.
Where [6] appears, read: blood 12 h after oral TEF to rats.
Where [7] appears, read: blood 24 h after oral TEF to rats.
The mark [8] stands for this setting: blood 48 h after oral TEF to rats.
Where [9] appears, read: blood 72 h after oral TEF to rats.
Setting [10] is: blood 0.5 h after oral TEF to rats.
Setting [11] is: Albino Wistar, rat, plasma, po, 85 mg/kg.
The mark [12] stands for this setting: GA-H in rat plasma after oral TEF 85 mg/Kg.
Setting [13] is: GA-H, rats, oral TEF 85 mg/Kg, non-compartmental analysis.

On to `CC(CC(=O)C[C@@H](C)[C@H]1CC(=O)[C@@]2(C)C3=C(C(=O)C[C@]12C)[C@@]1(C)CCC(=O)C(C)(C)[C@@H]1C[C@@H]3O)C(=O)O` (some centres unmarked) [Ganoderic acid D], for which the “Metabolites Pattern in TEF and Blood (Abundance)” value (“Metabolites Pattern” below) is reported as 36,786 in data set [1] (setting [3]); 37,654 in data set [1] (setting [4]); 27,689 in data set [1] (setting [5]); 26,657 in data set [1] (setting [6]); 21,234 in data set [1] (setting [7]).

As for `C[C@H](CC(=O)C[C@@H](C)[C@H]1C[C@H](O)[C@@]2(C)C3=C(C(=O)C[C@]12C)[C@@]1(C)CCC(=O)C(C)(C)[C@@H]1C[C@@H]3O)C(=O)O` [Ganoderic acid A], the “bioavailability (absorbed in systemic circulation) of TEF constituent” value (“bioavailability” for short) in data set [1] is “bioavailable”. Besides, the “Metabolites Pattern” value is reported as 45,647 in data set [1] (setting [3]); 37,652 in data set [1] (setting [4]); 29,143 in data set [1] (setting [5]); 22,987 in data set [1] (setting [6]); 21,548 in data set [1] (setting [7]). Further, the “effect on growth and invasive behavior of breast cancer cells” value (from here on “effect on growth and invasive behavior”) with breast cancer cells is “suppress the growth and invasive behavior”.

Consider `CCCCC/C=C\C/C=C\CCCCCCCC(=O)O` [Linoleic acid], for which the “bioavailability” value in data set [1] is “bioavailable”. The “Metabolites Pattern” value was 23,451 in data set [1] (setting [4]); 21,543 in data set [1] (setting [5]); 18,756 in data set [1] (setting [6]); 12,112 in data set [1] (setting [7]); 8453 in data set [1] (setting [8]); 5641 in data set [1] (setting [9]).

With `CC(=O)O[C@@H]1C(=O)C2=C(C(=O)C[C@H]3C(C)(C)C(=O)CC[C@]23C)[C@]2(C)C(=O)C[C@H]([C@H](C)CC(=O)CC(C)C(=O)O)[C@@]12C` (some centres unmarked) [GA-F, ganoderic acid F], in the data set with breast cancer cells, the “effect on growth and invasive behavior” value was “suppress the growth and invasive behavior”.

For `NC(=O)CC[C@H](N=C/C=C1/C=C(C(=O)O)N[C@H](C(=O)O)C1)C(=O)O` [Glutamine-betaxanthin], the “bioavailability” value in data set [1] is listed as “absorbed in the systemic circulation”.

On to `CC(C)CCCCCCCCCCCC(=O)O` [13-methylmyristic acid], for which the “bioavailability” value in data set [1] is “bioavailable”. Further, the “Metabolites Pattern” value in data set [1] (setting [4]) is 23,412; in data set [1] (setting [5]), 25,473; in data set [1] (setting [6]), 21,675; in data set [1] (setting [7]), 16,734; in data set [1] (setting [8]), 9835; in data set [1] (setting [9]), 5642.

For the compound `OC[C@H]1OC(c2c(O)cc3c(c2O)C[C@@H](O)[C@@H](c2ccc(O)c(O)c2)O3)[C@H](O)[C@@H](O)[C@@H]1O` (some centres unmarked) [Epicatechin-6-glucoside], in data set [1], the “bioavailability” value is “bioavailable”. For the same compound, the “Metabolites Pattern” value in data set [1] (setting [10]) is 19,876; in data set [1] (setting [3]), 36,783; in data set [1] (setting [4]), 25,056; in data set [1] (setting [5]), 26,578; in data set [1] (setting [6]), 22,346; in data set [1] (setting [7]), 21,324. The “Metabolites Pattern” value in data set [1] (setting [8]) is recorded as 24,569; in data set [1] (setting [9]) it was 22,345.

The AUC(0-inf) is total exposure, with the tail of the curve extrapolated. What is called AUC(0-t) is exposure summed from dosing to a finite time, without extrapolation to infinity. In general, half-life refers to how long it takes for the measured level to halve. In the case of `CC(=O)O[C@@H]1C(=O)C2=C(C(=O)C[C@H]3C(C)(C)[C@@H](O)CC[C@]23C)[C@]2(C)C(=O)C[C@H]([C@H](C)CC(=O)CC(C)C(=O)O)[C@@]12C` (some centres unmarked) [GA-H, ganoderic acid H], the “Metabolites Pattern” value in data set [1] (setting [10]) is recorded as 35,876. In addition, the “Metabolites Pattern” value in data set [1] (setting [3]) is listed as 45,675. The “Metabolites Pattern” value in data set [1] (setting [4]) was 54,675. Also, the “Metabolites Pattern” value in data set [1] (setting [5]) is 32,456. For the same compound, the “Metabolites Pattern” value in data set [1] (setting [6]) is 24,978. In data set [2] (setting [11]), this compound gave an AUC(0-inf) of 9840 ± 157 ng·h/mL and an AUC(0-t) of 9800 ± 170 ng·h/mL. Moreover, the half-life in data set [2] (Albino Wistar, rat, plasma, po, 85 mg/kg, read-out: half-life in blood (converted)) is 13.2 h. Besides, the Cmax in data set [2] (Albino Wistar, rat, plasma, po, 85 mg/kg, read-out: maximum plasma concentration (Cmax)) worked out at 2510 ng/mL. In data set [2] (Albino Wistar, rat, plasma, po, 85 mg/kg, read-out: mean residence time in blood), the MRT came out at 5.42 h. Also, in data set [2] (setting [12]), the “relative exposure AUC0–∞/D” value stood at 1968.9 ± 32.5 ng·h/mL/mg, the “relative exposure Cmax/D” value amounted to 501.9 ± 25.4 ng/mL/mg and the “time to peak plasma concentration (Tmax)” value is “approximately one”. Also, the “time up to which a quantifiable amount was sustained in plasma” value in data set [2] (GA-H, rats, oral TEF) is given as “up to 12 h”. Also, the “rate of elimination (Kel)” value in data set [2] (GA-H, rats, oral TEF 85 mg/Kg) is on record as 0.05. In data set [2] (setting [13]), the “clearance (CL)” value was determined as 507.9 ± 25.6 mL/h and the “volume of distribution (Vd)” value came out at 9660.3 ± 111.5 mL. Also, in data set [2] (rat urine collected at 4, 12 and 24 h after oral TEF, pooled), the detection in urine result is reported as “no GA-H was detected”. Also, the “effect on growth and invasive behavior” value with breast cancer cells was “suppress the growth and invasive behavior”.
